Experimental data: patent publication US12133846B2, “Electrophilic androgen receptor (AR) antagonists for AR downregulation and ferroptosis induction in cancer cells” (priority 2019, dated 2024)
pIC50: −log10 of the molar value. Where “and” joins values, the source holds several entries; their conditions need not be identical. Identical values can stand only once.

How the values were obtained:
RWPE-1 cells = experiment: BSO pretreatment plus 2-63, MTT viability, RWPE-1 cells; settings: BSO up to 100 μM
Description: Cell viability was then assessed using an MTT assay.
PCa cells (6×10^3 cells/well) were seeded into 96-well plates overnight and then treated with indicated compounds at indicated concentrations and time durations. The MTT (3-(4, 5-Dimethylthiazol-2-yl)-2,5-diphenyltetrazolium bromide) assay was performed according to the standard protocol. Briefly, MTT (0.5 mg/mL) was incubated with cells at 37° C. for 3 hours. Supernatant was removed, followed by the addition of dimethyl DMSO (100 μl). After incubation for 30 minutes at 37° C., absorbance was read at 570 nm on a microplate reader.

FL AR and AR-V7 [1] = target: T1, FL AR and AR-V7 (Homo sapiens, UniProt P10275); experiment: Western blotting of FL AR and AR-V7 in VCaP cells; assay type: cell-based; settings: full media, 16 h, 2-63, 12b 5 and 15 μM, Enz 10 μM
T1 construct: Whole cell lysates were subjected to Western blotting and probed with the indicated antibodies; endogenous in cells; host or cells: VCaP
T1 sequence (P10275 1-644 isoform P10275-3): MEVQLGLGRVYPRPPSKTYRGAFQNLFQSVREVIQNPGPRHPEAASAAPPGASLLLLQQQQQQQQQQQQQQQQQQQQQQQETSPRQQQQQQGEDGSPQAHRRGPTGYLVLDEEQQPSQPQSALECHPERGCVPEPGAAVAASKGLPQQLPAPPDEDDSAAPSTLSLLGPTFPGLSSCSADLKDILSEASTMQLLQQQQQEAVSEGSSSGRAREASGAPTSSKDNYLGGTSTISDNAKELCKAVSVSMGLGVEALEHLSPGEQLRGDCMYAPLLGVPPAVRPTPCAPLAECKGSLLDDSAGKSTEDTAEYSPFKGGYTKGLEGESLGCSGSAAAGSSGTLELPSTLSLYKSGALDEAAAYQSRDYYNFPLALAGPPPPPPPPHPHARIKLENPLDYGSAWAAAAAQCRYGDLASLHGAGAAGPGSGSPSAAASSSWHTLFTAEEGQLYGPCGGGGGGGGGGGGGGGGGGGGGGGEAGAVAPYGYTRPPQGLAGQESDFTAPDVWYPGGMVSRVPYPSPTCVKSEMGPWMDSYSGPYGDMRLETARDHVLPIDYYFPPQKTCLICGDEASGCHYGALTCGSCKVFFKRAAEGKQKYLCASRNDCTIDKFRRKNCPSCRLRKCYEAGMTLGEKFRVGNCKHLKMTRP
Description: (§1) Western Blotting. […] Proteins in cell lysates (40 μg) were separated using electrophoresis on SDS-PAGE and transferred onto PVDF (polyvinylidenedifluoride) membranes. Membranes were blocked in 5% fat-free milk followed by incubation with primary antibodies overnight at 4° C., and the secondary horseradish peroxidase-conjugated anti-rabbit or anti-mouse antibodies. The blots were developed in the Enhanced Chemiluminescence mixture and detected by ImageQuant™ LAS 4000 imaging system (GE). Density of protein bonds were calculated and analyzed by using imageJ software downloaded from the National Institute of Health website.

FL AR and AR-V7 [2] = target: T2, FL AR and AR-V7 (Homo sapiens, UniProt P10275); experiment: Western blotting of FL AR and AR-V7 in VCaP cells; assay type: cell-based; settings: full media, 16 h, 2-63, 12b 5 and 15 μM, Enz 10 μM, SAHA 1 μM
T2 construct: Whole cell lysates were subjected to Western blotting and probed with the indicated antibodies; endogenous in cells; host or cells: VCaP
T2 sequence (P10275 1-920): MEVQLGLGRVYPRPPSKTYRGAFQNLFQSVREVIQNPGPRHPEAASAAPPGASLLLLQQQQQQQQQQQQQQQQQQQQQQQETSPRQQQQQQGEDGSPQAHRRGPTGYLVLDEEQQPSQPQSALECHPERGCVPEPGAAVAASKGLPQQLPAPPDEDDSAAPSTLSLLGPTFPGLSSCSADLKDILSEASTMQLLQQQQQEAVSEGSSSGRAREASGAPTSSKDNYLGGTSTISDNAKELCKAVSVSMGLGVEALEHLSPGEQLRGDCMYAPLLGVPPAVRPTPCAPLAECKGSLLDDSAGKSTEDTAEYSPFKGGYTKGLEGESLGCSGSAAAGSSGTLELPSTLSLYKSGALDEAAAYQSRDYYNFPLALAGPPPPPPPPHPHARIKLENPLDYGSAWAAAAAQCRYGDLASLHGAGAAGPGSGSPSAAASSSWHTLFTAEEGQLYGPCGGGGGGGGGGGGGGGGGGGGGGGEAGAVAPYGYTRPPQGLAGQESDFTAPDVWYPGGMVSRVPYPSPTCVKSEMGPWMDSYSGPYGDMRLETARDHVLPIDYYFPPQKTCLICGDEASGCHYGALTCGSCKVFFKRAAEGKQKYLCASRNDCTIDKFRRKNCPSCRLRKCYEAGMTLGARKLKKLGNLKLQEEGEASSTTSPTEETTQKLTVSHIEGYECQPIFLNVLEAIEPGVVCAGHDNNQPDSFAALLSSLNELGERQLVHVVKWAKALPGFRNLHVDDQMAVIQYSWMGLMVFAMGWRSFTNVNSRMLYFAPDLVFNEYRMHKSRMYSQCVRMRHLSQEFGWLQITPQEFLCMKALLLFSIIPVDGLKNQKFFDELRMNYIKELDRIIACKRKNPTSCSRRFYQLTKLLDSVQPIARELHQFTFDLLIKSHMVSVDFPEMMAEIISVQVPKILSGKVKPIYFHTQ
Description: as §1

[3] = system: acetylation of α-tubulin and histone H3 (markers for HDAC6 and nuclear HDAC inhibition); experiment: Western blotting of acetylation markers in VCaP cells; assay type: cell-based; settings: 16 h, 2-63 and 12b 5 and 15 μM, SAHA 1 μM
Description: as §1

22Rv1 cells = experiment: MTT viability assay, 22Rv1 cells; assay type: cell-based; settings: 5 μM, 72 h
Source text: (§2) Biological Characterization. ITC-ARi hybrid drugs effectively reduce the viability of PCa cells. By using an MTT assay, it was first examined if the newly synthesized hybrid drugs affect the viability of CRPC-relevant PCa cells. PCa VCaP cells naturally express abundant wild type FL AR as well as AR splice variants (e.g., AR-V7). These cells were, therefore, used as one of the cell culture models in this work to investigate the drug-caused viability loss and AR downregulation.

Hsp90, Hsp70, HO-1 = experiment: Western blotting of Hsp90, Hsp70 and HO-1 in VCaP cells; assay type: cell-based; settings: 16 h, 5 and 15 μM
Description: as §1

LNCaP and RWPE-1 cells = experiment: MTT viability, PCa LNCaP versus non-cancerous RWPE-1 cells; assay type: cell-based; settings: 72 h, 2.5 to 10 μM
Source text: Because of the better selectivity and water solubility of 2-63 over 12b, 2-63 was used for further in vitro characterization and mechanistic studies.

VCaP cells = experiment: MTT viability assay, VCaP cells; assay type: cell-based; settings: Homo sapiens, VCaP; 72 h, full media, MTT; read-out: IC50, viability of VCaP cells
Source text: as §2

C4-2 cells = experiment: MTT viability assay, C4-2 cells; assay type: cell-based; settings: 5 μM, 72 h
Source text: as §2

[4] = system: AR transcriptional activity in MDA-kb2 cells; experiment: cells; assay type: cell-based; settings: DHT 1 nM
Description: MDA-kb2-cell-based ARE luciferase assays were performed to assess the influence of 2-63 and related compounds on AR transcriptional activity. […] Upon androgen stimulation and addition of a luciferase substrate, […], and the intensity is proportional to the extent of AR activation. An agent that either antagonistically competes with DHT for AR binding or reduces the expression of AR diminishes luciferase activity/fluorescence signal in this experimental system. […] 10b (an alcohol) and 11 b (an azide) are synthetic precursors of the ITC hybrid 12b.
Luciferase Assay. […] For all procedures, cells were incubated at CO2 free condition. Steady-Glo® (Promega Corp., Madison, WI) reagent was added to culture media with shaking for 10 min. Samples (100 μL) were transferred to an opaque 96-well white plate, and luminescence was measured using a luminometer.

SMILES	enhancement of the potency of 2-63 by BSO in RWPE-1 cells (RWPE-1 cells)	AR-V7 expression (FL AR and AR-V7 [1])	FL AR expression (FL AR and AR-V7 [2])	histone H3 acetylation [3]	α-tubulin acetylation ([3]; SFN 15 μM)	relative potency in viability reduction, 22Rv1 cells (22Rv1 cells)	Hsp70 protein level (Hsp90, Hsp70, HO-1)	Hsp90 protein level (Hsp90, Hsp70, HO-1)	differential anti-proliferative effect, LNCaP vs RWPE-1 cells (LNCaP and RWPE-1 cells)	pIC50 (VCaP cells)	relative potency in viability reduction, C4-2 cells (C4-2 cells)	AR inhibition at 1 μM relative to Enz, 10b and 11b ([4]; 1 μM)	suppression of DHT-stimulated luciferase activity ([4]; 1-5 μM)	AR inhibition at higher concentrations relative to comparators ([4]; 2.5 and 5 μM)
CCCCS(=N)(=O)CCC(N)C(=O)O [BSO, L-buthionine sulfoximine, reference compound]	does not notably enhance													
CC1(C)C(=O)N(c2ccc(C#N)c(C(F)(F)F)c2)C(=S)N1c1ccc(CCCCCCN=C=S)nc1 [12b, 4-(3-(6-(6-Isothiocyanatohexyl)pyridin-3-yl)-4,4-dimethyl-5-oxo-2-thioxoimidazolidin-1-yl)-2-(trifluoromethyl) benzonitrile]		seemed to be more effective	seemed to be more effective	did not show significant effects	did not show significant effects	more effective than 12a and 12b>2-63>PEITC-NAC	significantly induced	did not change	almost equally suppressed	5.41	more effective than 12a and 12b>2-63>PEITC-NAC	less effective	decreased luciferase activity in a dose-dependent manner	similarly with these non-ITC-containing compounds
